Tests used:
[1] = system: retinal ganglion cells (RGCs); test: Optic nerve crush injury after immunization with MOG p35-55, retrograde labeling of RGCs; format: in vivo, rat; conditions: 50 μg/animal with IFA intradermally in footpads ten days prior to crush; two weeks after injury
Experimental: FIG. 10 is a graph illustrating inhibition of secondary degeneration after optic nerve crush injury in adult rats. See text, Example 3, for experimental details. Rats were injected intradermally through the footpads with a 21-mer peptide based on MOG amino acid residues 35-55 (MOG p35-55) (([…], chemically synthesized at the Weizmann Institute of Science, Rehovot, Israel) or PBS ten days prior to optic nerve crush injury or MOG p35-55 in the absence of crush injury. MOG p35-55 was administered with IFA. Surviving optic nerve fibers were monitored by retrograde labeling of RGCs. The number of RGCs in rats injected with PBS or MOG p35-55 was expressed as a percentage of the total number of neurons in rats injected with MOG p35-55 in the absence of crush injury.
Rats were injected intradermally in the footpads with MOG p35-55 (50 μg/animal) and IFA, or PBS, ten days prior to optic nerve crush injury. RGCs were assessed two weeks after injury using retrograde labeling as described above. The number of RGCs in rats injected with PBS or MOG p35-55 was expressed as a percentage of the total number of neurons in rats injected with MOG p35-55 in the absence of crush injury.

contused spinal cord = test: Spinal cord contusion, post-traumatic immunization with Nogo p472, BBB hindlimb motor score; format: in vivo, SPD rats
[2] = system: retinal ganglion cells (RGCs); test: Optic nerve crush injury after oral MBP, retrograde labeling of RGCs; format: in vivo, Lewis rats; conditions: fed antigen from ten days before mild crush injury (FIG. 14)
Experimental: MBP (Sigma, Israel) (1 mg in 0.5 ml saline) was administered orally to adult rats by gavage using a blunt needle. MBP was administered 5 times, i.e., every third day beginning two weeks prior to optic nerve crush injury. Surviving optic nerve fibers were monitored by retrograde labeling of RGCs. The number of RGCs in treated rats was expressed as a percentage of the total number of neurons in untreated rats following the injury.
Lewis rats were fed 1 mg MBP daily, or every other day, or 4 times a day at two-hour intervals for five consecutive days. Control animals were given PBS or the non-self antigen OVA Sigma, Israel). Ten days after the start of MBP ingestion, the right optic nerves were subjected to a calibrated mild crush injury. Two weeks later the RGCs were retrogradely labelled by application of the fluorescent lipophilic dye 4-Di-10-Asp(Molecular Probes Europe BV, Netherlands), distally to the site of injury, as described. […] Six days after dye application, the retina was detached from the eye, prepared as a flattened whole mount in 4% paraformaldehyde solution, and examined for labeled RGCs by fluorescence microscopy. RGCs were counted from three different regions in the retina. The results are expressed as normalized percentage of each retina to untreated injured animal mean of the same experiment. […]

Molecule: MOG p35-55: 21-mer peptide based on amino acids 35-55 of MOG, chemically synthesized, given with IFA (MEVGWYRSPFSRVVHLYRNGK; given with IFA; UniProt Q61885 63-83, looked up, fragment)
- number of labeled RGCs compared to animals receiving PBS [1]: about 12.5 fold

Molecule: p472: 18-mer peptide, residues 623-640 of rat Nogo-A (SEQ ID NO:19), emulsified in CFA (SYDSIKLEPENPPPYEEA; emulsified in CFA; listed as Rattus norvegicus)
- overall functional recovery compared to control rats (PBS in CFA or PBS only) (contused spinal cord; 100 μg/rat in CFA s.c. after contusion, female and male rats, P<0.01): significantly improved
- day from which hind limb locomotion was significantly better than PBS-treated controls (contused spinal cord; female rats, 50 mm, boosted one week after injury): 25 days
- day after injury from which locomotor performance was significantly better than PBS+CFA-treated controls (contused spinal cord; male rats): 11 days

B1: OVA: non-self antigen ovalbumin (Sigma) fed to control rats (protein, UniProt P01012 2-386, looked up)
Ovalbumin: GSIGAASMEFCFDVFKELKVHHANENIFYCPIAIMSALAMVYLGAKDSTRTQINKVVRFDKLPGFGDSIEAQCGTSVNVHSSLRDILNQITKPNDVYSFSLASRLYAEERYPILPEYLQCVKELYRGGLEPINFQTAADQARELINSWVESQTNGIIRNVLQPSSVDSQTAMVLVNAIVFKGLWEKAFKDEDTQAMPFRVTEQESKPVQMMYQIGLFRVASMASEKMKILELPFASGTMSMLVLLPDEVSGLEQLESIINFEKLTEWTSSNVMEERKIKVYLPRMKMEEKYNLTSVLMAMGITDVFSSSANLSGISSAESLKISQAVHAAHAEINEAGREVVGSAEAGVDAASVSEEFRADHPFLFCIKHIATNAVLFFGRCVSP
- number of surviving RGCs two weeks after optic nerve injury vs control group [2]: ns

Source: patent US7560102B2, “Method for reducing neuronal degeneration so as to ameliorate the effects of injury or disease” (Yeda Research and Development Co., Ltd, priority 1998, dated 2009)
